Measurements as given in article PMC12856972 (Clinical Pharmacology in Drug Development, 2025).

Experiments:
[1] = test system: healthy volunteers; assay: Peak Saccadic Velocity
[2] = test system: healthy volunteers; conditions: in vivo
[3] = test system: healthy volunteers; assay: Karolinska Sleepiness Scale
[4] = test system: healthy volunteers; assay: Neuroendocrine biomarkers serum cortisol and ACTH; conditions: Phase 1 trials
[5] = test system: social anxiety disorder patients; conditions: as‐needed acute dosing, NCT05193409; cited from earlier work
[6] = Plasma PK, single ascending dose trial BNC210.001; assay type: in vivo, human; conditions: suspension, fasted
[7] = Plasma PK, food effect SAD trial BNC210.002; assay type: in vivo, human; conditions: suspension
[8] = test system: patients with PTSD; conditions: 12‐week; cited from earlier work
[9] = test system: healthy volunteers; assay: Subjective feelings on VAS
[10] = test system: healthy volunteers; assay: Quantitative EEG profiling
[11] = suspension taken with food, out‐patient, NCT02933606; cited from earlier work
[12] = test system: healthy volunteers; assay: ARCI 49 abuse liability checklist
[13] = biological target: α7 nAChR (Homo sapiens, UniProt P36544); assay: Nicotine shift assay, qEEG α2 band; assay type: in vivo; conditions: 1,000 mg BID; particularly with 2 mg nicotine
[14] = Plasma PK, multiple ascending dose trial BNC210.005; assay type: in vivo, human
[15] = test system: mouse and rat behavioral models of anxiety and stress‐related disorders; conditions: cited from earlier work
[16] = Urinary excretion of unchanged drug, trial BNC210.001; assay type: in vivo, human; conditions: suspension, fasted
[17] = test system: healthy volunteers; assay: PEPSY psychometric test battery; assay type: in vivo, human; conditions: up to 1000 mg BID for 8 days; Day 1 and Day 8
[18] = Plasma PK, 7-day trial BNC210.011; assay type: in vivo, human
[19] = Plasma PK, suspension vs 150 mg tablet cross-over trial BNC210.009; assay type: in vivo, human; conditions: 300 mg tablet
[20] = test system: healthy volunteers; assay: Safety and tolerability, Phase 1 trials; assay type: in vivo, human
[21] = Plasma PK, SAD trial BNC210.010; assay type: in vivo, human; conditions: 150 mg‐strength tablet, fasted, up to 1200 mg
[22] = test system: healthy volunteers; assay: Digit Symbol Substitution Test
[23] = test system: healthy volunteers; assay: CCK‐4 induced panic model; assay type: in vivo, human; conditions: 2000 mg
[24] = test system: patients with GAD; conditions: cited from earlier work
[25] = Phase 1 trials in healthy volunteers, N = 173

Chain of α7 nAChR (P36544 23-502): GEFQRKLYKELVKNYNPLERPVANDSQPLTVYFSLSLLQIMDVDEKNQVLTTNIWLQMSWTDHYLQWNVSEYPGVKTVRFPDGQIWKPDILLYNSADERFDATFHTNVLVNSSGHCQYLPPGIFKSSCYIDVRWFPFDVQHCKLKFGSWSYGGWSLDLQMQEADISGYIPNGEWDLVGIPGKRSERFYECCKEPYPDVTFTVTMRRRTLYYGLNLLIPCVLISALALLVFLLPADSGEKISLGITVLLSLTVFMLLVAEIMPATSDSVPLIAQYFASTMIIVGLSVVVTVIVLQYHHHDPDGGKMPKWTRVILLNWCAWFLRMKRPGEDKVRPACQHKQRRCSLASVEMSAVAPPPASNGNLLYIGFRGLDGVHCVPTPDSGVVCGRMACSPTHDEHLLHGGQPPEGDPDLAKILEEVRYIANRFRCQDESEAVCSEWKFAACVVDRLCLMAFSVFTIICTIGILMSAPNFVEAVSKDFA

CCn1cc(C(=O)N2CCOCC2)c(=O)c2cc(NC3Cc4ccccc4C3)cnc21 [BNC210]
Peak saccadic velocity vs placebo ([1]; 300 and 2000 mg): did not show any significant effect | Total reaction time vs placebo [2]: no increases in total reaction time | Karolinska Sleepiness Scale vs placebo ([3]; 300 and 2000 mg): no increase in sleepiness | Effect on serum cortisol or ACTH [4]: No consistent effects | Anxiety levels vs placebo [5]: improvements in anxiety levels | Change in exposure with dose ([6]; beyond 600 mg): no appreciable further increase in exposure | Dose proportionality of AUC and Cmax ([6]; dose levels up to 50 mg): increased approximately dose proportionately | Increase in AUC with food ([7]; 300 mg, fed vs fasted): 3.5 fold | Increase in Cmax with food ([7]; 300 mg, fed vs fasted): more than doubling | Increase in AUC at 2000 mg over 1200 mg ([7]; fed): 15% | Dose proportionality of exposure ([7]; fed, 600 and 1200 mg): approximately dose‐proportional | PTSD total symptom severity scores, depression, insomnia vs placebo [8]: effective at significantly reducing | Subjective feelings on VAS (16‐item Bond and Lader or eVAS) ([9]; trials BNC210.001, .002, .003, .005, basal state): No effects on subjective feelings | qEEG alpha power ([10]; 300 mg dose only): small decrease in alpha power | qEEG delta activity vs placebo ([10]; 300 and 2000 mg): increased delta EEG activity in the resting condition, but not the Vigilance‐Controlled condition | qEEG delta power ([10]; 300 and 2000 mg): some increase in delta power in the Resting condition only | Overlap of EEG profile with lorazepam ([10]; in vivo): little overlap in EEG profiles | qEEG beta‐3 ([10]; in vivo): only a slight increase | Plasma levels, population PK analysis [11]: appreciably lower than expected | ARCI 49 checklist ([12]; trials BNC210.003, BNC210.004, BNC210.005): No clinically significant feelings associated with any classes of drugs of abuse | Extent of inhibition of nicotine‐induced α2 band response [13]: partial | Dose proportionality of exposures ([14]; suspension BID, increasing dose levels): less than dose‐proportional | Mean steady state AUC0–12 ([14]; suspension, 1000 mg BID (2000 mg/day)): 24900 ng·h/mL | Day steady state achieved ([14]; suspension, 150 and 300 mg BID): 2 days | Day steady state achieved ([14]; suspension, 600 and 1000 mg BID): 6 days | Activity in behavioral models of anxiety and stress‐related disorders ([15]; broad therapeutic dosage range): effective | Side effects in rodent models ([15]; preclinical pharmacology and toxicology studies): did not elicit sedation, memory or motor impairment, or physical dependence | Drug excreted unchanged in the urine ([16]; single 5 mg): 13.6 % of the dose administered | Drug excreted unchanged in the urine ([16]; single 2000 mg): 0.6 % of the dose administered | Cognition, PEPSY test battery [17]: no overall consistent effect on cognition | Day from which steady state achieved ([18]; 225 mg‐strength tablet, 900 mg BID): 3 days | Steady state AUC0‐12, tablet 900 mg BID vs suspension 1000 mg BID ([18]; in vivo): double | Tmax ([19]; fasted): 2 h | Tmax ([19]; fed): 4 h | TEAE Fatigue [20, 25]: 7 (4.1) n (%) | TEAE Headache [20, 25]: 35 (20.2) n (%) | TEAE Nausea [20, 25]: 8 (4.6) n (%) | TEAE Somnolence [20, 25]: 16 (9.3) n (%) | Dose relationship of CNS TEAEs (headache, somnolence, nausea, fatigue) ([20]; SAD and MAD trials): did not suggest a dose relationship | Serious adverse events ([20]; eight Phase 1 trials): no serious adverse events were reported | Maximum tolerated dose ([20]; up to 2000 mg suspension and 1200 mg tablet): No maximum tolerated dose was found | Dose proportionality of Cmax and AUC [21]: increased proportionally with dose | Digit Symbol Substitution Test vs placebo ([22]; 300 mg, 6‐h P < 0.05): no effects with 300 mg, except at the 6‐h time point only | Digit Symbol Substitution Test vs placebo ([22]; 2000 mg): no effects at any time point | eVAS emotional stability vs placebo ([23]; 5 min post CCK‐4 injection, P = 0.104): trend | PSS Sum Intensity score vs placebo ([23]; 10 min post CCK‐4 injection, 15 evaluable responders, P < 0.041): significant reduction | PSS Total Symptom score vs placebo ([23]; 10 min post CCK‐4 injection, 15 evaluable responders, P < 0.048): significant reduction | Threat avoidance behavior and self‐reported anxiety [24]: significantly reduced

O=C1Nc2ccc(Cl)cc2C(c2ccccc2Cl)=NC1O (stereo not shown) [lorazepam, reference compound]
Peak saccadic velocity (mean maximum) vs placebo ([1]; 2 mg, 6, 9, and 12 h (P < 0.001)): significantly slower | Total reaction time vs placebo [2]: significantly higher | Karolinska Sleepiness Scale vs placebo ([3]; 2 mg, 6‐h (P < 0.001), 9‐h (P < 0.05)): significant increase in the feeling of sleepiness | eVAS mood vs placebo ([9]; 2 mg, trial BNC210.003, 6 h time point, P < 0.05): mood‐lowering effect | qEEG delta activity vs placebo ([10]; 2 mg): increased delta activity during both the Resting and Vigilance‐Controlled conditions | ARCI 49 benzedrine subscale vs placebo ([12]; 2 mg, P = 0.056): tended to score lower | Digit Symbol Substitution Test vs placebo ([22]; 2 mg, 6‐h (P < 0.001), 9‐hour (P < 0.05)): significant effect
